Here are results for 1 substance from patent US8697841B2, “Peptide for transmigration across blood brain barrier and delivery systems comprising the same” (Industrial Technology Research Institute, priority 2009, dated 2014).

The nature of this assay: Hot plate test (PD study). It counts as in vivo, mice. The following applies: 7.5 mg/kg EM-1, intravenous injection. The method, then: Hot-plate test was used to evaluate thermal pain reflexes due to footpad contact with a heated surface. The response of the animals to the hot plate reflects a nociceptive behavior, which involves complex circuit integration in the central nervous system.
Briefly, the mice were individually placed on a […] hot plate apparatus and the time until onset of licking the hindlimb was measured. Basal latency was approximate 2 sec, and cut-off time in the absence of a response (T2) was set at 45 sec. The inhibition of the hindlimb-licking responses were expressed as percent maximal possible effect (% MPE) which was calculated as [(T1−T0)/(T2−T0)]×100, where T0 and T1 were the hot-plate latencies before and after intravenous injection of the EM-1 formulations. The hot-plate latency was determined 10, 20, 30, 60, 120, 180 and 210 min after the formulation injection (7.5 mg/kg EM-1), and the AUC (the area under a curve) values for MPE % versus time (min) plots were calculated.
A general note: Thermal pain tests record how soon the animal reacts.

With endomorphin-1 [EM-1], the “analgesic effect (nociceptive responses) in hot-plate test” value is “did not reduce the nociceptive responses”.
